Source: the Kinase Knowledgebase extract (Sharma et al. 2016)

Molecular target: PIK3CB;PIK3CG;PIK3CD;PIK3CA (human) (UniProt P48736)
Experiment: Inhibition of PIK3CA/PIK3CB/PIK3CD/PIK3CG Kinase Activity

| IC50 [nM] | SMILES |
| --- | --- |
| 89 | COc1ccc(CC2CCN(C(C)=O)CC2)c(Nc2nc3ccccc3nc2NS(=O)(=O)c2cn(C)cn2)c1 |
| 26 | COc1ccc(CC2CCC(O)CC2)c(Nc2nc3ccccc3nc2NS(=O)(=O)c2ccc(CN(C)C)cc2)c1 (configuration not stated) |
| 86 | COc1ccc(CCO)c(Nc2nc3ccccc3nc2NS(=O)(=O)C2CCS(=O)(=O)C2)c1 (configuration not stated) |
| 970 | COc1cc(CN2CCN(C)CC2)cc(Nc2nc3ccccc3nc2NS(=O)(=O)c2cccnc2)c1 |
| 350 | COc1ccc(CCS(C)(=O)=O)c(Nc2nc3ccccc3nc2NS(=O)(=O)CCCS(C)(=O)=O)c1 |
| 200 | COc1ccc(C(C)C)c(Nc2nc3ccccc3nc2NS(=O)(=O)c2cn(C)cn2)c1 |
| 84 | COc1ccc(CCCO)c(Nc2nc3ccccc3nc2NS(=O)(=O)c2cn(C)c(CO)n2)c1 |
| 550 | COc1ccc(C(CO)CO)c(Nc2nc3ccccc3nc2NS(=O)(=O)c2cn(C)cn2)c1 |
| 34 | COc1ccc(CCO)c(Nc2nc3ccccc3nc2NS(=O)(=O)c2ccc(OCCO)cc2)c1 |
| 27 | COc1ccc(CC2CCOCC2)c(Nc2nc3ccccc3nc2NS(=O)(=O)c2cccnc2)c1 |
| 250 | COc1ccc(CCO)c(Nc2nc3ccccc3nc2NS(=O)(=O)c2ccc(C(=O)N(C)C)cc2)c1 |
| 42 | COc1ccc(CCS(C)(=O)=O)c(Nc2nc3ccccc3nc2NS(=O)(=O)c2ccccc2)c1 |
| 32 | COc1ccc(CCCO)c(Nc2nc3ccccc3nc2NS(=O)(=O)c2ccc(NC(=O)CN(C)C)cc2)c1 |
| 30 | COc1ccc(CC2CCS(=O)(=O)CC2)c(Nc2nc3ccccc3nc2NS(=O)(=O)c2cn(C)cn2)c1 |
| 48 | COc1ccc(CCO)c(Nc2nc3ccccc3nc2NS(=O)(=O)c2cn(C)cn2)c1 |
| 84 | COc1ccc(CCS(C)(=O)=O)c(Nc2nc3ccccc3nc2NS(=O)(=O)c2cn(C)cn2)c1 |
| 720 | COc1ccc(CCCO)c(Nc2nc3ccccc3nc2NS(=O)(=O)C2CCN(C(=O)OCc3ccccc3)CC2)c1 |
| 23 | COc1ccc(CCO)c(Nc2nc3ccccc3nc2NS(=O)(=O)c2ccc(F)cc2)c1 |
| 50 | COc1ccc(CCCS(C)(=O)=O)c(Nc2nc3ccccc3nc2NS(=O)(=O)c2cn(C)cn2)c1 |
| 95 | COc1ccc(CCO)c(Nc2nc3ccccc3nc2NS(C)(=O)=O)c1 |
| 27 | COc1ccc(CCO)c(Nc2nc3ccccc3nc2NS(=O)(=O)c2ccc(NC(=O)CN(C)C)cc2)c1 |
| 100 | COc1ccc(CC2CCN(C(=O)CN(C)C)CC2)c(Nc2nc3ccccc3nc2NS(=O)(=O)c2cn(C)cn2)c1 |
| 83 | CCCCO.COCCc1ccc(OC)cc1Nc1nc2ccccc2nc1NS(=O)(=O)c1cn(C)cn1 |

| IC50 [nM] | SMILES |
| --- | --- |
| 130 | COc1ccc(CC2CCOCC2)c(Nc2nc3ccccc3nc2NS(C)(=O)=O)c1 |
| 110 | COc1ccc(CC2C[C@H]3CC[C@@H](C2)N3C)c(Nc2nc3ccccc3nc2NS(=O)(=O)c2cn(C)cn2)c1 (some centres not stated) |
| 87 | CCCS(=O)(=O)Nc1nc2ccccc2nc1Nc1cc(OC)ccc1CCS(C)(=O)=O |
| 5620 | COc1cc(Nc2nc3ccccc3nc2NS(C)(=O)=O)cc(C(=O)N2CCOCC2)c1 |
| 87 | COc1ccc(CCCO)c(Nc2nc3ccccc3nc2NS(=O)(=O)c2cn(C)c(CS(C)(=O)=O)n2)c1 |
| 45 | COc1ccc(CC2CCN(C)CC2)c(Nc2nc3ccccc3nc2NS(=O)(=O)c2cccnc2)c1 |
| 22 | COc1ccc(CCO)c(Nc2nc3ccccc3nc2NS(=O)(=O)c2ccc(C#N)cc2)c1 |
| 180 | COc1ccc(CC2CCCC2)c(Nc2nc3ccccc3nc2NS(=O)(=O)c2cn(C)cn2)c1 |
| 65 | COc1ccc(CCO)c(Nc2nc3ccccc3nc2NS(=O)(=O)c2ccc(NC(=O)CO)cc2)c1 |
| 120 | COc1ccc(CC(O)CO)c(Nc2nc3ccccc3nc2NS(=O)(=O)c2cn(C)cn2)c1 (configuration not stated) |
| 18 | COc1ccc(CC2CCC(O)CC2)c(Nc2nc3ccccc3nc2NS(=O)(=O)c2cn(C)cn2)c1 (configuration not stated) |
| 1100 | COc1cc(CN(C)C)cc(Nc2nc3ccccc3nc2NS(=O)(=O)c2cn(C)cn2)c1 |
| 200 | COCCc1ccc(OC)cc1Nc1nc2ccccc2nc1NS(=O)(=O)c1cn(C)c(CS(C)(=O)=O)n1 |
| 49 | COc1ccc(CN2CCN(C)CC2)c(Nc2nc3ccccc3nc2NS(=O)(=O)c2cccnc2)c1 |
| 26 | COc1ccc(CCO)c(Nc2nc3ccccc3nc2NS(=O)(=O)c2ccc(CN(C)C)cc2)c1 |
| 30 | COc1ccc(CC2CCOCC2)c(Nc2nc3ccccc3nc2NS(=O)(=O)c2ccc(CN(C)C)cc2)c1 |
| 470 | COc1ccc(CO)c(Nc2nc3ccccc3nc2NS(=O)(=O)c2cn(C)cn2)c1 |
| 130 | COc1ccc(CCCO)c(Nc2nc3ccccc3nc2NS(=O)(=O)C2CCS(=O)(=O)C2)c1 (configuration not stated) |
| 98 | COCCc1ccc(OC)cc1Nc1nc2ccccc2nc1NS(=O)(=O)C1CCNCC1 |
| 120 | COc1ccc(CCO)c(Nc2nc3ccccc3nc2NS(=O)(=O)CCCS(C)(=O)=O)c1 |
| 140 | COc1ccc(CCS(C)(=O)=O)c(Nc2nc3ccccc3nc2NS(=O)(=O)CCCSC)c1 |
| 760 | COc1cc(Nc2nc3ccccc3nc2NS(=O)(=O)c2cn(C)cn2)cc(C(=O)N(C)C)c1 |
| 200 | COc1ccc(CCS(C)(=O)=O)c(Nc2nc3ccccc3nc2NS(C)(=O)=O)c1 |

| IC50 [nM] | SMILES |
| --- | --- |
| 12 | COc1ccc(CCCO)c(Nc2nc3ccccc3nc2NS(=O)(=O)c2cccc(NC(=O)CO)c2)c1 |
| 20 | COc1ccc(CC2CCC(O)CC2)c(Nc2nc3ccccc3nc2NS(=O)(=O)c2cccnc2)c1 (configuration not stated) |
| 350 | COc1cc(Nc2nc3ccccc3nc2NS(=O)(=O)CCCS(C)(=O)=O)cc(C(=O)NCCO)c1 |
| 44 | CCCS(=O)(=O)Nc1nc2ccccc2nc1Nc1cc(OC)ccc1CCO |
| 21 | COC(=O)c1ccc(OC)cc1Nc1nc2ccccc2nc1NS(=O)(=O)c1cn(C)cn1 |
| 49 | COc1ccc(CC2CCOCC2)c(Nc2nc3ccccc3nc2NS(=O)(=O)c2cn(C)cn2)c1 |
| 1650 | COC(=O)c1ccc(OC)cc1Nc1nc2ccccc2nc1NS(C)(=O)=O |
| 110 | COc1ccc(CC2CCN(C)CC2)c(Nc2nc3ccccc3nc2NS(C)(=O)=O)c1 |
| 87 | COc1ccc(CCS(C)(=O)=O)c(Nc2nc3ccccc3nc2NS(=O)(=O)c2cn(C)c(CN(C)C)n2)c1 |
| 43 | COc1ccc(CC2CCN(C)CC2)c(Nc2nc3ccccc3nc2NS(=O)(=O)c2cn(C)cn2)c1 |
| 75 | COc1ccc(CCO)c(Nc2nc3ccccc3nc2NS(=O)(=O)CCCSC)c1 |
| 100 | COc1ccc(CC2CCSCC2)c(Nc2nc3ccccc3nc2NS(=O)(=O)c2cn(C)cn2)c1 |
| 36 | COc1ccc(CCO)c(Nc2nc3ccccc3nc2NS(=O)(=O)c2ccc(CCCO)cc2)c1 |
| 100 | COc1cc(Nc2nc3ccccc3nc2NS(=O)(=O)c2cn(C)cn2)cc(C(=O)NCCO)c1 |
| 150 | COc1ccc(CC2CCOCC2)c(Nc2nc3ccccc3nc2NS(=O)(=O)c2ccc(F)cc2)c1 |
| 300 | COCCc1ccc(OC)cc1Nc1nc2ccccc2nc1NS(=O)(=O)C1CCN(C(C)=O)CC1 |
| 49 | CCCS(=O)(=O)Nc1nc2ccccc2nc1Nc1cc(OC)ccc1CCCO |
| 160 | COc1ccc(CCS(C)(=O)=O)c(Nc2nc3ccccc3nc2NS(=O)(=O)C(C)C)c1 |
| 300 | COc1ccc(S(=O)(=O)NCCO)c(Nc2nc3ccccc3nc2NS(=O)(=O)CCCS(C)(=O)=O)c1 |
| 760 | COc1ccc(CC2CCCCC2)c(Nc2nc3ccccc3nc2NS(=O)(=O)c2ccc(CN(C)C)cc2)c1 |
| 72 | COc1ccc(CN2CCOCC2)c(Nc2nc3ccccc3nc2NS(=O)(=O)c2cccnc2)c1 |
| 88 | COC(=O)c1ccc(OC)cc1Nc1nc2ccccc2nc1NS(=O)(=O)c1cccnc1 |
| 43 | COc1ccc(CCO)c(Nc2nc3ccccc3nc2NS(=O)(=O)c2ccc(CN3CCC(F)CC3)cc2)c1 |

| IC50 [nM] | SMILES |
| --- | --- |
| 3340 | COc1cc(Nc2nc3ccccc3nc2NS(=O)(=O)c2cccnc2)cc(C(=O)N2CCN(C)CC2)c1 |
| 450 | COc1ccc(CC2CCCCC2)c(Nc2nc3ccccc3nc2NS(=O)(=O)c2cn(C)cn2)c1 |
| 57 | COc1ccc(CCO)c(Nc2nc3ccccc3nc2NS(=O)(=O)C2CCCCC2)c1 |
| 70 | COC(=O)CCc1ccc(S(=O)(=O)Nc2nc3ccccc3nc2Nc2cc(OC)ccc2CCO)cc1 |
| 26 | COc1ccc(CCCO)c(Nc2nc3ccccc3nc2NS(=O)(=O)C2CCNCC2)c1 |
| 110 | COc1ccc(CN2CCN(C)CC2)c(Nc2nc3ccccc3nc2NS(=O)(=O)c2ccc(F)cc2)c1 |
| 21 | CC#N.COc1ccc(CCCO)c(Nc2nc3ccccc3nc2NS(=O)(=O)c2cn(C)cn2)c1 |
| 400 | COCCNC(=O)c1cc(Nc2nc3ccccc3nc2NS(=O)(=O)c2cn(C)cn2)cc(OC)c1 |
| 51 | COc1ccc(CC2CCN(C(C)=O)CC2)c(Nc2nc3ccccc3nc2NS(=O)(=O)c2cccnc2)c1 |
| 59 | CCS(=O)(=O)Nc1nc2ccccc2nc1Nc1cc(OC)ccc1CCCO |
| 480 | COc1ccc(CCCO)c(Nc2nc3ccccc3nc2NS(=O)(=O)c2cccc(NC(=O)COCc3ccccc3)c2)c1 |
| 490 | COc1ccc(CC2CCCCC2)c(Nc2nc3ccccc3nc2NS(=O)(=O)c2cccnc2)c1 |
| 64 | COc1ccc(CCCO)c(Nc2nc3ccccc3nc2NS(C)(=O)=O)c1 |
| 160 | COc1ccc(CC2CCN(S(C)(=O)=O)CC2)c(Nc2nc3ccccc3nc2NS(=O)(=O)c2cn(C)cn2)c1 |
| 420 | COc1ccc(CC2CC(C)(C)N(C)C(C)(C)C2)c(Nc2nc3ccccc3nc2NS(=O)(=O)c2cn(C)cn2)c1 |
| 60 | CCS(=O)(=O)Nc1nc2ccccc2nc1Nc1cc(OC)ccc1CCO |
| 30 | COc1ccc(CCCO)c(Nc2nc3ccccc3nc2NS(=O)(=O)c2cccc(NC(=O)CN(C)C)c2)c1 |
| 40 | COc1ccc(CCO)c(Nc2nc3ccccc3nc2NS(=O)(=O)c2cccnc2)c1 |
| 4680 | COc1ccc(C(=O)O)c(Nc2nc3ccccc3nc2NS(=O)(=O)c2cccnc2)c1 |
| 106 | COc1ccc(CCO)c(Nc2nc3ccccc3nc2NS(=O)(=O)c2ccc(C)[n+]([O-])c2)c1 |
| 170 | COc1ccc(CC2CCN(C(C)=O)CC2)c(Nc2nc3ccccc3nc2NS(C)(=O)=O)c1 |
| 190 | COc1ccc(CCS(C)(=O)=O)c(Nc2nc3ccccc3nc2NS(=O)(=O)c2c(C)noc2C)c1 |
| 28 | COc1ccc(CCCO)c(Nc2nc3ccccc3nc2NS(=O)(=O)c2cn(C)c(CN(C)C)n2)c1 |
